Data taken from ChEMBL document CHEMBL3886519, “Pyrazolo[1,5a]pyrimidine derivatives as IRAK4 modulators” (2016).
pIC50: −log10 of the molar value.

Tests used:
[1] = target: Tyrosine-protein kinase SYK (Homo sapiens, UniProt P43405); assay: In vitro SYK Kinase Assay: SYK activity is measured by phosphorylation of a peptide substrate (Biotin-[…]) with [gamma-33P] ATP. The enzyme reaction was conducted at 20 uM ATP with 0.05 uCi [gamma-33P]ATP (2 uCi for 40 ul assay) and 10 uM peptide substrate at final volume of 40 ul in buffer containing 50 mM Hepes, pH 7.2, 1 mM dithiothreitol, 10 mM MgCl2, 100 uM Na3VO4, 0.1% BSA and 10% DMSO. The enzyme assay was carried out with human full length SYK in the presence or absence of ten compound concentrations. SYK and compound were pre-incubated for 10 minutes. Then, the enzymatic reaction was initiated by addition of ATP and peptide substrate. The reaction mixture was incubated at room temperature for 30 minutes. At the end of incubation, the reaction was terminated by transferring 25 ul of the reaction mixture to 100 ul of 10% streptavidin slurry containing 100 mM EDTA. The reaction product was captured on the affinity resin and sequentially washed on a filtration plate (Millipore, MABVNOB50) with 2M NaCl, 2M M NaCl in 1% phosphoric acid and water to remove free radio nucleotide. Then the incorporation of 33P into peptide substrate was quantified on a microplate scintillation counter.
[2] = target: T1, Interleukin-1 receptor-associated kinase 4 (Homo sapiens, UniProt Q9NWZ3); assay: (§1) In vitro IRAK-1 and IRAK-4 Assay: Purified recombinant IRAK-4 protein was incubated with 250 uM synthetic peptide([…]) in 30 ul of kinase buffer including (20 mM MOPS pH7.2, 25 mM beta glycerol phosphate, 5 mM EGTA, 1 mM sodium orthovanadate, 1 mM DTT, 50 uM ATP, 20 mM MgCl2, 10 uCi gamma-33P, 0.1% BSA) for the indicated time. For purified recombinant IRAK-1 protein kinase assay, 50 uM ATP was used. A 25 ul aliquot of the reaction mixture was transferred on to p81 phosphocellulose squares (Upstate Biotechnology, Lake Placid, N.Y.). The assay squares were washed three times with 0.75% phosphoric acid and once with acetone. Enzyme activity was measured by determining the bound radioactivity by liquid scintillation counting.
T1 sequence (Q9NWZ3 whole entry): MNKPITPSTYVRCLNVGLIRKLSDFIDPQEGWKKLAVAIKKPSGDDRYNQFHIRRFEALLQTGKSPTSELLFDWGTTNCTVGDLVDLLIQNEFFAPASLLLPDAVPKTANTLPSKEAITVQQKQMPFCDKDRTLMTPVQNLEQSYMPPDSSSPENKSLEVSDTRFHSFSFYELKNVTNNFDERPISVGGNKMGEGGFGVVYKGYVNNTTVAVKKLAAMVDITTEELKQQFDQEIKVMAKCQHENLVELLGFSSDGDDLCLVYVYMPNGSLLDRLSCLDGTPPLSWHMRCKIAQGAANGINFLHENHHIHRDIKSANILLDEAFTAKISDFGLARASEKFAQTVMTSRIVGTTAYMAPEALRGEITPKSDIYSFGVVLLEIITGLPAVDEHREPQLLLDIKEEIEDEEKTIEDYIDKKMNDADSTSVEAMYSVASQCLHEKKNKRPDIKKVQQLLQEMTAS

[3] = target: Interleukin-1 receptor-associated kinase 1 (Homo sapiens, UniProt P51617); assay: as §1
Sequence of Interleukin-1 receptor-associated kinase 1 (P51617 whole entry): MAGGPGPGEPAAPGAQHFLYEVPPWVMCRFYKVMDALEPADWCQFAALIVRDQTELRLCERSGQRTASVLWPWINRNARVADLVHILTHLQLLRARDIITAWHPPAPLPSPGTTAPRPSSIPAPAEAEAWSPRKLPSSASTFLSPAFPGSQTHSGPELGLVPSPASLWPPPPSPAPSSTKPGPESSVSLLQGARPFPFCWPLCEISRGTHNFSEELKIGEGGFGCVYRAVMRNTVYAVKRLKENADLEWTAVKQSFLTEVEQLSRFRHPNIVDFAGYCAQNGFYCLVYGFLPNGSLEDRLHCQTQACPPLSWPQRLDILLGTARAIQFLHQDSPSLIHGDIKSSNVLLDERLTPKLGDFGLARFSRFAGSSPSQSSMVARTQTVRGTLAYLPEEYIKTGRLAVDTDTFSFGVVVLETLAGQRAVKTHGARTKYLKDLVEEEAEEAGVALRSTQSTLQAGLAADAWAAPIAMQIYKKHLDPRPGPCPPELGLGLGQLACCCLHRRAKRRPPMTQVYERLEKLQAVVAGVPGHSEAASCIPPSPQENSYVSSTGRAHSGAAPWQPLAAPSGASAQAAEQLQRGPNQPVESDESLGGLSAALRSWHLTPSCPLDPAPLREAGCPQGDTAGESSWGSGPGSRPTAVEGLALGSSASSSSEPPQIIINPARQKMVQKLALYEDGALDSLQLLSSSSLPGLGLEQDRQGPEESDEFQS

Compound	pIC50 [1]	pIC50 [2]	pIC50 [3]
COc1cc2ncccc2cc1NC(=O)c1csc2cncnc12	6.21	7.74	
CC(O)C1CCN(c2ccc(Cl)cc2NC(=O)c2cnn3cccnc23)CC1 (stereo not given)		8.30	6.01
O=C(Nc1cc2cccnc2cc1OC1CCC(O)CC1)c1csc2cncnc12 (stereo not given)		7.62	6.91
O=C(Nc1cc2cccnc2cc1N1CCCCC1)c1csc2cncnc12		7.92	
O=C(Nc1cc2cccnc2cc1O[C@H]1CC[C@@H](O)CC1)c1csc2cncnc12		8.15	7.15

Continued by rising pIC50 [2], values first:

pIC50 [1]	pIC50 [2]	pIC50 [3]	Compound
	7.64	6.79	O=C(Nc1cc(Cl)ccc1OC1CCC(O)CC1)c1cnn2cc(O)cnc12 (stereo not given)
	8.00	6.70	COc1cc2nc(NCCO)ccc2cc1NC(=O)c1csc2cncnc12
	8.05	6.70	COc1cc2ncccc2cc1NC(=O)c1cnn2cc(O)cnc12
